This is an account of results in patent US7829332B2, “Purines are self-renewal signals for neural stem cells, and purine receptor antagonists promote neuronal and glial differentiation therefrom” (Cornell Research Foundation, Inc., priority 2004, dated 2010).

Common to all, as to assay type: cell-based, mouse
The test system of experiment [1] is neurospheres. The experiment is described as follows: Flow cytometry of S-phase fraction and P27 expression. The note with it: for P27 expression: suramin 300 μM, RB 40 μM (FIG. 3D); for fraction of cells in S-phase: treated cultures, untreated control 16.4%±1.8%, p<0.001. The procedure: Cultures were stained for nestin (monoclonal clone Rat 401, IgG1, or rabbit antiserum, Chemicon, Temecula, Calif.; 1:2000), neuronal class III β-tubulin (monoclonal clone TuJ1, IgG2a, Covance, Philadelphia, Pa.; 1:500), MAP-2 (2a+2b) (monoclonal clone AP-20, ascites fluid, Sigma, St. Louis, Mo.; 1:500), Neuronal protein HuC/HuD (monoclonal 16A11, Molecular Probes, Eugene, Oreg.; 15 μg/ml), O4 (monoclonal IgM supernatant; O4 hybridoma, or GFAP (mouse clone GA5, or rabbit antiserum, Sigma; 1:500,), purinergic receptors P2Y1, P2Y2, P2Y4 (polyclonal, Alomone Labs, Jerusalem, Israel, 1:200), p27 (polyclonal, Chemicon, 1:2000), cyclins D1 and E (polyclonal, H-295 and M-20, respectively, Santa Cruz Biotechnology, Santa Cruz, Calif.; 1:100), Secondary antibodies were FITC-conjugated goat anti-mouse IgM (μ-chain specific, Sigma; 1:500), Cy3-conjugated goat-anti-rabbit IgG (H+ L) (1:200), Cy5-conjugated Goat-anti-mouse IgG (H+L) (both from Jackson ImmunoResearch, West Grove, Pa.; 1:100). Nuclei were counter-stained with Sytox Green or propidium iodide (Molecular Probes). P27, cyclin D and cyclin E FACS analyses were performed on an EPICS ELITE ESP flow cytometer/cell sorter (Beckman Coulter), as described (Deptala et al., Int J Oncol 15:861-71 (1999), which is hereby incorporated by reference in its entirety). The analysis of ectonucleotidase activity was adapted from Braun et al., “Expression of the Ecto-ATPase NTPDase2 in the Germinal Zones of the Developing and Adult Rat Brain,” Eur. J. Neurosci. 17:1355-64 (2003), which is hereby incorporated by reference in its entirety. Cryostat sections from paraformaldehyde-perfused animals were utilized. All experiments used either inosine diphosphate (IDP), adenosine diphosphate (ADP), or adenosine triphosphate (ATP) as substrate (1 mM), whereas substrate was omitted from controls.
The inhibition of proliferation afforded by suramin and RB was reversible. The percentage of cells in S-phase recovered by 50% at 8 h and by 80% at 24 hr after wash-out of the drugs.

The subject of experiment [2] is neural progenitors. Briefly: Limiting dilution analysis of dissociated neurospheres. To be noted: for minimum density at which cells remain viable and expand: low density cultures. The procedure: (§1) For the BrdU incorporation assay, the cultures were incubated for 4 hrs in BrdU (Sigma, 10 μg/ml, 4 hrs), fixed and stained with rat monoclonal anti-BrdU (MAS250C, Harlan Sera-lab, Loughborough, UK; 1:200) and Cy3-conjugated goat anti-rat antibodies (Jackson ImmunoResearch, 1:300). Nuclei were visualized by Sytox (Molecular Probes, Inc.), and the mitotic index was calculated as the ratio of BrdU/Sytox positive nuclei. Limiting dilution analysis was performed as previously described (Keyoung et al., Nature Biotechnology 19:843-850 (2001); Uchida et al., Proc. Natl. Acad. Sci. 97:14720-14725 (2000), which are hereby incorporated by reference in their entirety).
To assess the requirement of P2Y signaling in self-renewal, neurospheres were dissociated to low density cultures and limiting dilution analysis performed, in the presence or absence of either suramin or RB. […] Thus, purinergic receptor activation was required not only for continued proliferation of neural progenitors, but also for survival at low plating densities.

Experiment [3] deals with neural spheres. Briefly: Lineage potential by clonal expansion and immunostaining. To be noted: 5 day exposure, then 7 days without inhibitors. As to the method:
Cultures were stained for nestin (monoclonal clone Rat 401, IgG1, or rabbit antiserum, Chemicon, Temecula, Calif.; 1:2000), neuronal class III β-tubulin (monoclonal clone TuJ1, IgG2a, Covance, Philadelphia, Pa.; 1:500), MAP-2 (2a+2b) (monoclonal clone AP-20, ascites fluid, Sigma, St. Louis, Mo.; 1:500), Neuronal protein HuC/HuD (monoclonal 16A11, Molecular Probes, Eugene, Oreg.; 15 μg/ml), O4 (monoclonal IgM supernatant; O4 hybridoma, or GFAP (mouse clone GA5, or rabbit antiserum, Sigma; 1:500,), purinergic receptors P2Y1, P2Y2, P2Y4 (polyclonal, Alomone Labs, Jerusalem, Israel, 1:200), p27 (polyclonal, Chemicon, 1:2000), cyclins D1 and E (polyclonal, H-295 and M-20, respectively, Santa Cruz Biotechnology, Santa Cruz, Calif.; 1:100), Secondary antibodies were FITC-conjugated goat anti-mouse IgM (μ-chain specific, Sigma; 1:500), Cy3-conjugated goat-anti-rabbit IgG (H+ L) (1:200), Cy5-conjugated Goat-anti-mouse IgG (H+L) (both from Jackson ImmunoResearch, West Grove, Pa.; 1:100). Nuclei were counter-stained with Sytox Green or propidium iodide (Molecular Probes). P27, cyclin D and cyclin E FACS analyses were performed on an EPICS ELITE ESP flow cytometer/cell sorter (Beckman Coulter), as described (Deptala et al., Int J Oncol 15:861-71 (1999), which is hereby incorporated by reference in its entirety). […]

The test system of experiment [4] is neural stem cells. The experiment is described as follows: BrdU incorporation assay (mitotic index). To be noted: 4 hrs incubation. The procedure:
as §1
Purinergic signaling has long-term effects on proliferation of numerous cell types, including rapidly replicating transformed cell lines (Burnstock, G., Arterioscler Thromb Vasc Biol 22:364-73 (2002); Michoud et al., Am J Respir Cell Mol Biol 27:732-8 (2002); Sauer et al., J Cell Sci 115:3265-73 (2002); Tu et al., Br J Pharmacol 129:1481-9 (2000), which are hereby incorporated by reference in their entirety). To better define the mitogenic effects of P2Y on neural progenitor cells, the mitogenic effects of ATP, its analogs, and its dephosphorylated metabolites were compared. To this end, BrdU incorporation by neural stem cells was quantified after 4 hrs incubation in each treatment.

The subject of experiment [5] is neural progenitor cells. The experiment is described as follows: Calcium imaging (fluo-4/am) of Ca2+i responses in 1-2 day cultures. As to the method:
Neuronal cultures were prepared from E16 mice and maintained as earlier described (Nedergaard, M., Science 263:1768-1771 (1994), which is hereby incorporated by reference in its entirety). Cytosine arabinoside (20 μM) was added at 48 hr to eliminate proliferating cells. Neural progenitor cells were isolated from E13 mice as previously described (Morshead et al., Neuron 13:1071-82 (1994); Reynolds et al., Science 255:1707-10 (1992), which are hereby incorporated by reference in their entirety). The forebrains were collected in a Ca/Mg-free Hank's buffered saline solution (HBSS) and dissociated in 0.25% trypsin. The cells were resuspended at 4×10^6 cells/ml in DMEM/F12/N2 containing 10 ng/ml bFGF and 10 ng/ml EGF (Sigma, St. Louis, Mo.). The cells were plated at 4 ml/dish into 100 mm suspension culture plates and incubated at 37° C. in 5% CO2. The cells were passaged 2 to 3 times before use.
To test the idea that purinergic signaling is restricted to undifferentiated neural precursor cells, Ca^2+ responses to ATP were first examined as a function of time after plating either neural stem cells or differentiated neurons. Cultured mouse cortical neurons in near-pure neuronal cultures were loaded with fluo-4/am and exposed to either ATP (100 μM) or K^+ (60 mM). […] The responses to ATP fell by day 3 and were absent 9 days after plating. […] By 30 hours after plating, MAP2-defined neurons expressed substantially less P2Y receptor-immunoreactivity than did neighboring, MAP2^− cells (FIG. 1C). By 5 days, P2Y-immunoreactivity was restricted to GFAP^+ astrocytes.
ATP-induced Ca^2+i increments were inhibited by both suramin (100 μM) and reactive blue (RB; 30 μM), two mechanistically-unrelated inhibitors of purinergic signaling (FIG. 1D).

For the molecule `Cc1ccc(C(=O)Nc2ccc(S(=O)(=O)O)c3cc(S(=O)(=O)O)cc(S(=O)(=O)O)c23)cc1NC(=O)c1cccc(NC(=O)Nc2cccc(C(=O)Nc3cc(C(=O)Nc4ccc(S(=O)(=O)O)c5cc(S(=O)(=O)O)cc(S(=O)(=O)O)c45)ccc3C)c2)c1` [suramin], in experiment [1], the P27 expression result is listed as “increase in the tumor suppressor P27” and the “fraction of cells in S-phase” value came out at 8.4±2.3%. In experiment [2], the “minimum density at which cells remain viable and expand” value is on record as “increased the minimum density”; the “survival at low plating densities” value was “died by 5 days in vitro”. Moreover, the “lineage potential of exposed progenitor cells” value in experiment [3] is recorded as “neither suramin nor RB restricted the lineage potential”. For the same molecule, in experiment [4], the “proliferation (BrdU incorporation)” value was “inhibited proliferation in a dose-dependent manner”. The “inhibition of ATP-induced Ca2+i increments” value in experiment [5] (suramin 100 μM) is “inhibited”.

Regarding `Nc1c(S(=O)(=O)O)cc(Nc2ccc(Nc3nc(Cl)nc(Nc4cccc(S(=O)(=O)O)c4)n3)c(S(=O)(=O)O)c2)c2c1C(=O)c1ccccc1C2=O` [RB, reactive blue 2], in experiment [1], the P27 expression entry is on record as “rose more strongly” and the “fraction of cells in S-phase” value was found to be 5.7±0.3%. For the same molecule, in experiment [2], the “minimum density at which cells remain viable and expand” value is “increased the minimum density”; the “survival at low plating densities” value is recorded as “died by 5 days in vitro”. Also, the “lineage potential of exposed progenitor cells” value in experiment [3] is “neither suramin nor RB restricted the lineage potential”. In addition, the “proliferation (BrdU incorporation)” value in experiment [4] is reported as “inhibited proliferation in a dose-dependent manner”. For the same molecule, in experiment [5] (reactive blue 30 μM), the “inhibition of ATP-induced Ca2+i increments” value is “inhibited”.
